Data on 15 molecules can be found in patent US6451791B1, “Amidoaromatic ring sulfonamide hydroxamic acid compounds” (Monsanto Company, priority 1997, dated 2002).

In one data set the target is hMMP-3 (Homo sapiens, UniProt P08254). The data set can be described thus: In vitro metalloprotease inhibition, fluorogenic MCA peptide substrate. As to conditions: room temperature, pH 7.5. It is filed as biochemical. How it is done: (§1) The compounds prepared in the manner described in Examples 1 to 15 were assayed for activity by an in vitro assay. Following the procedures of Knight et al., FEBS Lett. 296(3):263 (1992). Briefly, 4-aminophenylmercuric acetate (APMA) or trypsin activated MMPs were incubated with various concentrations of the inhibitor compound at room temperature for 5 minutes.
Sequence of hMMP-3 (P08254 100-477): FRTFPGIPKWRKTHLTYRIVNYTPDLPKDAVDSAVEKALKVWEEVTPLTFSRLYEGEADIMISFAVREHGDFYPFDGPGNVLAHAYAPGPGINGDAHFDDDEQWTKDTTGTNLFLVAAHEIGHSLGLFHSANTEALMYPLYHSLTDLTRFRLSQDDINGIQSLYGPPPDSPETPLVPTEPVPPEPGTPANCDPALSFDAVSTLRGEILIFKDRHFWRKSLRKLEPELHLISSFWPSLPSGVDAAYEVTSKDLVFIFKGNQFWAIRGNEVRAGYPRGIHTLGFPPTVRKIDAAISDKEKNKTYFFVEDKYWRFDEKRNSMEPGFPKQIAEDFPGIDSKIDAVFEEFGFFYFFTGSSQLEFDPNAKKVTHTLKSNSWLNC
(§2) The enzyme substrate is a methoxycoumarin-containing polypeptide having the following sequence:
(§3) MCA-ProLeuGlyLeuDpaAlaArgNH^2, wherein MCA is methoxycoumarin and Dpa is 3-(2,4-dinitrophenyl)-L-2,3-diaminopropionyl alanine. This substrate is commercially available from Baychem as product M-1895.
(§4) The buffer used for assays contained 100 mM Tris-HCl, 100 mM NaCl, 10 mM CaCl2 and 0.05 percent polyethyleneglycol (23) lauryl ether at a pH value of 7.5. Assays were carried out at room temperature, and dimethyl sulfoxide (DMSO) at a final concentration of 1 percent was used to dissolve inhibitor compound.
(§5) The assayed inhibitor compound in DMSO/buffer solution was compared to an equal amount of DMSO/buffer with no inhibitor as control using Microfluor™ White Plates (Dynatech). The inhibitor or control solution was maintained in the plate for 10 minutes and the substrate was added to provide a final concentration of 4 μM.
(§6) In the absence of inhibitor activity, a fluorogenic peptide was cleaved at the gly-leu peptide bond, separating the highly fluorogenic peptide from a 2,4-dinitrophenyl quencher, resulting in an increase of fluorescence intensity (excitation at 328 nm/emission at 415 nm). Inhibition was measured as a reduction in fluorescent intensity as a function of inhibitor concentration, using a Perkin Elmer L550 plate reader. The IC50 values were calculated from those values. The results are set forth in the Inhibition Table below as Table 9, reported in terms of IC50.

For the next data set, the target named is T1, hMMP-2 (Homo sapiens, UniProt P08253).
T1 sequence (P08253 110-660): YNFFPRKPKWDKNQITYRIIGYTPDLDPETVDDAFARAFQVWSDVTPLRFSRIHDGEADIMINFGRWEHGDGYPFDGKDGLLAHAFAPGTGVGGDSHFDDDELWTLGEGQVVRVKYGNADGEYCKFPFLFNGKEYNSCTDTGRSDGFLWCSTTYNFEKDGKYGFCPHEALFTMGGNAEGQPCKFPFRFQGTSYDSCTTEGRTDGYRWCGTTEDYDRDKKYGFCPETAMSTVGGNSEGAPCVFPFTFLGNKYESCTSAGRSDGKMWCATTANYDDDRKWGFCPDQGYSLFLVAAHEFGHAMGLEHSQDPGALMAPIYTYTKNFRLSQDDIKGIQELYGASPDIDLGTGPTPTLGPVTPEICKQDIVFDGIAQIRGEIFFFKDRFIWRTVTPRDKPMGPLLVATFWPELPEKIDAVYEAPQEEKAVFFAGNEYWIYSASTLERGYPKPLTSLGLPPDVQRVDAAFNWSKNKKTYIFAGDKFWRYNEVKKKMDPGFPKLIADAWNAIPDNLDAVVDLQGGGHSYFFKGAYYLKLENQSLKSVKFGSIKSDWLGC
Described as above. It is filed as biochemical. Particulars: room temperature, pH 7.5. How it is done: as §1, §2, §3, §4, §5, §6

For the next data set, the target named is hMMP-8 (Homo sapiens, UniProt P22894). The data set is described as above. It counts as biochemical. As to conditions: room temperature, pH 7.5. How it is done:
as §1, §2, §3, §4, §5, §6

In a further data set the target is hMMP-9 (Homo sapiens, UniProt P14780). Described as above. Particulars: room temperature, pH 7.5. It counts as biochemical. How it is done:
as §1, §2, §3, §4, §5, §6

The next data set deals with T2, hMMP-13 (Homo sapiens, UniProt P45452).
T2 construct: made in house
The data set is described as above. It counts as biochemical. As to conditions: recombinant human enzyme, APMA activated, room temperature, pH 7.5. As to the method: as §1
(§7) More specifically, recombinant human MMP-13 and MMP-1 enzymes were prepared in laboratories of the assignee. MMP-13 was expressed in baculovirus as a proenzyme, and purified first over a heparin agarose column and then over a chelating zinc chloride column. The proenzyme was activated by APMA for use in the assay. MMP-1 expressed in transfected HT-1080 cells was provided by Dr. Howard Welgus of Washington University, St. Louis, Mo. The enzyme was also activated using APMA and was then purified over a hydroxamic acid column.
as §2, §3, §4, §5, §6

A further data set has as its target T3, hMMP-1 (Homo sapiens, UniProt P03956).
T3 construct: made in house; host or cells: transfected HT-1080 cells (provided by Dr. Howard Welgus, Washington University)
T3 sequence (P03956 100-469): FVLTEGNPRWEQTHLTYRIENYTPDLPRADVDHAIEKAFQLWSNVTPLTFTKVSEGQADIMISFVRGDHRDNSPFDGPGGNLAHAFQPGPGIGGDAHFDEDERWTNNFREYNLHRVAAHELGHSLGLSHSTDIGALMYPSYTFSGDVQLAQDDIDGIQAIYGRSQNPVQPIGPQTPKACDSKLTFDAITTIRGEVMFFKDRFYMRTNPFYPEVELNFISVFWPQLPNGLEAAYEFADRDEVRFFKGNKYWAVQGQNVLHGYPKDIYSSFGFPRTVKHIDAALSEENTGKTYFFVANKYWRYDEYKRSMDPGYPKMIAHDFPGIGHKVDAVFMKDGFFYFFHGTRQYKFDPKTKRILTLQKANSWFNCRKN
The data set is described as above. It counts as biochemical. As to conditions: recombinant human enzyme, APMA activated, room temperature, pH 7.5. How it is done:
as §1, §7, §2, §3, §4, §5, §6

For data set [1], the system named is advanced, rapidly progressive, treatment-refractory solid tumor cancers. Particulars: cited from earlier work.

pIC50: −log10 of the molar value. Counter-ions that a name gives are not always drawn.

Sequence of hMMP-9 (P14780 107-707 limits assumed): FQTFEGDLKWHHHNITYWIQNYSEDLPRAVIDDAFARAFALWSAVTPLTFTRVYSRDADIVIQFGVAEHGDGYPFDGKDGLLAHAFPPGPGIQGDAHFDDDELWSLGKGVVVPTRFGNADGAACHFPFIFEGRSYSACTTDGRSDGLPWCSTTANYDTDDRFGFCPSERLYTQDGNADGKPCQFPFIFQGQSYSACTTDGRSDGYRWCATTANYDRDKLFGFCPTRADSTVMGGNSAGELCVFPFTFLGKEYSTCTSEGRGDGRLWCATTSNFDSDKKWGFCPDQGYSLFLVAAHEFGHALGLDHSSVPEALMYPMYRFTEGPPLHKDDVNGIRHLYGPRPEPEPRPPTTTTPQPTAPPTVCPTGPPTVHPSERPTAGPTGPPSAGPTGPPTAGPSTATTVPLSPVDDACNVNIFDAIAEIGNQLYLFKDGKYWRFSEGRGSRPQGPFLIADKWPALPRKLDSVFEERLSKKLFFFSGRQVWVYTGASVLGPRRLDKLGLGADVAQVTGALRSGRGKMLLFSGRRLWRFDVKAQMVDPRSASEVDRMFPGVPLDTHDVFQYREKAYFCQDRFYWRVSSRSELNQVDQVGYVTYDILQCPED
Sequence of hMMP-8 (P22894 101-467): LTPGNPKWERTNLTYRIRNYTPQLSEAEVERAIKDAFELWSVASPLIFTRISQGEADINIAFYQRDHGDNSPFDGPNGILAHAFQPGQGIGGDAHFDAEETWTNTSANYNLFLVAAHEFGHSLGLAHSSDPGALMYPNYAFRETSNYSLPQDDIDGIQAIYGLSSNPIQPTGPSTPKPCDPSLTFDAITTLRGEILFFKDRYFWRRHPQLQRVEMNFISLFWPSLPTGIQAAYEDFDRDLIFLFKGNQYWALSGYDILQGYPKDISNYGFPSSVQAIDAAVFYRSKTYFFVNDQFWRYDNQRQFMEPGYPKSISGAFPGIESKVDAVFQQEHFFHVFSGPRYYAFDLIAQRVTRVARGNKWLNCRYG

By pIC50 is commonly meant −log10 of the IC50, conventionally taken in molar units. As to `CCCCCCc1ccc(C(=O)Nc2ccc(S(=O)(=O)N(CCN3CCOCC3)[C@@H](C(=O)NO)C(C)C)cc2)cc1` [Example 10a, (R)-4-Hexyl-N-[4-[[[1-(hydroxyamino)-carbonyl]-2-methylpropyl][2-(4-morpholinyl)ethyl]amino]sulfonyl]phenylbenzamide], the pIC50 against hMMP-3 is 6.74; at hMMP-2, above 10.00; against hMMP-8, 8.59.

With `CC(C)[C@H](C(=O)NO)N(CCN1CCOCC1)S(=O)(=O)c1ccc(NC(=O)c2ccc(Br)cc2)cc1` [Example 13], the pIC50 against hMMP-9 is 8.72; at hMMP-13, 9.40; on hMMP-1, 6.06.

`CCCCCc1ccc(C(=O)Nc2ccc(S(=O)(=O)N(CCN3CCOCC3)[C@H](Cc3ccccc3)C(=O)NO)cc2)cc1` [Example 15]: the pIC50 against hMMP-3 is 6.85; on hMMP-9, 6.54; at hMMP-2 it was above 10.00; at hMMP-8 it was 6.62; on hMMP-13, above 10.00; on hMMP-1 it was below 5.00.

As for `CCCc1ccc(C(=O)Nc2ccc(S(=O)(=O)N(Cc3cccnc3)[C@@H](C(=O)NO)C(C)C)cc2)cc1` [Example 11], the pIC50 against hMMP-3 was 6.65; against hMMP-9, 7.62; against hMMP-2, 10.00; on hMMP-8 it was 7.41; on hMMP-13, 9.30; on hMMP-1 it was below 5.00.

In the case of `C[C@H](C(=O)NO)N(CCN1CCOCC1)S(=O)(=O)c1ccc(NC(=O)c2ccc(Br)cc2)cc1` [Example 5], the pIC50 on hMMP-13 is 9.46; on hMMP-1, 5.31.

Regarding `CCCCc1ccc(C(=O)Nc2ccc(S(=O)(=O)N(CCN3CCOCC3)[C@@H](C(=O)NO)C(C)C)cc2)cc1` [Example 8], the negative logarithm of the IC50 (pIC50) at hMMP-3 is 7.30; against hMMP-9 it was 7.51; against hMMP-8, 7.59; on hMMP-13, 10.00; on hMMP-1, 5.40.

For the molecule `CNC(=O)[C@@H](NC(=O)[C@H](CC(C)C)[C@H](O)C(=O)NO)C(C)(C)C` [marimastat], the “most common drug-related toxicity” value in data set [1] (clinical trials in patients) was “musculoskeletal pain and stiffness”. Further, the “effect on cancer-specific antigens used as surrogate markers for biological activity” value in data set [1] (patients with colorectal, pancreatic, ovarian, prostate cancers) was “dose-related reduction in the rise of cancer-specific antigens”.

As to `CCCCCc1ccc(C(=O)Nc2ccc(S(=O)(=O)N[C@H](Cc3ccccc3)C(=O)NO)cc2)cc1` [Example 14], the pIC50 was 7.52 at hMMP-3; 6.79 against hMMP-9; above 10.00 against hMMP-2; 7.47 against hMMP-8; above 10.00 on hMMP-13; below 5.00 at hMMP-1.

With `CCCCCCc1ccc(C(=O)Nc2ccc(S(=O)(=O)N(CCN3CCOCC3)[C@@H](C(=O)NO)C(C)C)cc2)cc1` [Example 10], the figures for the pIC50 against hMMP-9, on hMMP-13 and on hMMP-1 were 6.46, above 10.00 and 5.25, respectively.

Turning to `CCCc1ccc(C(=O)Nc2ccc(S(=O)(=O)N(CCN3CCOCC3)[C@@H](C(=O)NO)C(C)C)cc2)cc1` [Example 7], the pIC50 is 7.05 at hMMP-3; 8.35 on hMMP-9; 8.05 at hMMP-8; 9.52 on hMMP-13; 5.40 at hMMP-1.

On to `C[C@H](C(=O)NO)N(CCN1CCOCC1)S(=O)(=O)c1ccc(NC(=O)c2ccccc2)cc1` [Example 4], for which the pIC50 is 7.70 against hMMP-9, 8.60 on hMMP-13 and below 5.00 on hMMP-1.

On to `CC(C)[C@H](C(=O)NO)N(CCN1CCOCC1)S(=O)(=O)c1ccc(NC(=O)c2ccccc2)cc1` [Example 12], for which the pIC50 is 6.10 against hMMP-3; 6.61 on hMMP-9; 7.91 at hMMP-8; 7.94 at hMMP-13; 5.47 at hMMP-1.

Regarding `C[C@H](C(=O)NO)N(CCN1CCOCC1)S(=O)(=O)c1ccc(NC(=O)c2ccccc2)cc1` [Example 4a, (R)-N-[4-[[[2-(Hydroxyamino)-1-methyl-2-oxoethyl][2-4-morpholinyl)ethyl]amino]sulfonyl]phenyl]benzamide, Monohydrochloride], the pIC50 against hMMP-9 was 7.62; on hMMP-13, 8.66.

Consider `C[C@H](C(=O)NO)N(CCN1CCOCC1)S(=O)(=O)c1ccc(NC(=O)C2CCCCC2)cc1` [Example 6], for which the pIC50 on hMMP-9 was 5.46; on hMMP-13 it was 6.60; on hMMP-1, below 5.00.

For the molecule `CCCCCc1ccc(C(=O)Nc2ccc(S(=O)(=O)N(CCN3CCOCC3)[C@@H](C(=O)NO)C(C)C)cc2)cc1` [Example 9], the pIC50 on hMMP-3 is 7.26; at hMMP-9 it was 6.70; against hMMP-2 it was above 10.00; at hMMP-8 it was 8.10; at hMMP-13, above 10.00; on hMMP-1, 5.40.
